In brackets after ≈: the same amount, converted by molar mass. Like-named read-outs stand apart in the source and are kept apart here.
Assays:
[1] = test system: M. tuberculosis H37Rv; experiment: Conventional CFU determination in infected macrophages; type: cell-based, Mycobacterium tuberculosis
[2] = test system: BJ-Skin; experiment: Cytotoxicity assay (resazurin); type: cell-based; settings: 5 days
Procedure: (§1) In order to address compound toxicity, seven cell lines originating from different body tissues were cultivated in the presence of 3-fold dilutions of compounds starting from 100 μM. After 5 days of culture, cell viability was assessed by the resazurin test. Briefly, cells were incubated with 10 μg/mL of resazurin (Sigma-Aldrich St. Louis, Mo.) for 4 h at 37° C. under 5% CO2. Resofurin fluorescence (RFU) was measured as indicated above. Percentage of toxicity on cells was calculated as follows: Cytotoxicity (%)=(RFUDMSO−RFUBlank)−(RFUcompound−RFUblank)/(RFUDMSO−RFUBlank)×100. Percentage of cytotoxicity was plotted against compound concentration and the minimal toxic concentration (MTC50) was determined by non-linear regression analysis as the lowest compound concentration where fifty percent toxicity was observed on the corresponding cell line.

[3] = test system: HEK293-Kidney; experiment: Cytotoxicity assay (resazurin); type: cell-based; settings: 5 days
Procedure: as §1

[4] = test system: HepG2-Hepatocytes; experiment: Cytotoxicity assay (resazurin); type: cell-based; settings: 5 days
Procedure: as §1

[5] = test system: MRC5-Lung; experiment: Cytotoxicity assay (resazurin); type: cell-based; settings: 5 days
Procedure: as §1

[6] = test system: SK-N-SH-Brain; experiment: Cytotoxicity assay (resazurin); type: cell-based; settings: 5 days
Procedure: as §1

[7] = test system: M. tuberculosis clinical isolates; type: cell-based, Mycobacterium tuberculosis
[8] = test system: M. tuberculosis H37Rv; experiment: MIC, in vitro bacterial growth assay; type: cell-based; settings: Mycobacterium tuberculosis
[9] = test system: M. tuberculosis H37Ra; experiment: MIC, in vitro bacterial growth assay; type: cell-based; settings: Mycobacterium tuberculosis
[10] = test system: M. tuberculosis Beijing 1237; experiment: MIC, in vitro bacterial growth assay; type: cell-based; settings: Mycobacterium tuberculosis, BEIJING1237; laboratory strain Beijing 1237
[11] = test system: M. bovis BCG Tokyo; experiment: microbe, parasite or virus in culture; type: cell-based; settings: Mycobacterium tuberculosis variant bovis BCG
[12] = test system: M. bovis BCG Pasteur; experiment: microbe, parasite or virus in culture; type: cell-based; settings: Mycobacterium tuberculosis variant bovis BCG
[13] = test system: M. smegmatis mc^2 155; experiment: MIC, in vitro bacterial growth assay; type: cell-based, Mycobacterium smegmatis; settings: for MIC: Mycolicibacterium smegmatis, MC^2155
[14] = Antimicrobial spectrum; type: cell-based; settings: Gram-negative panel
[15] = Antimicrobial spectrum; type: cell-based; settings: Gram-positive panel
[16] = test system: C. striatum; experiment: Antimicrobial spectrum; type: cell-based, Corynebacterium; settings: for MIC: Corynebacterium C. striatum
[17] = test system: C. jeikeium; experiment: Antimicrobial spectrum; type: cell-based, Corynebacterium; settings: for MIC: Corynebacterium C. jeikeium
[18] = test system: Fungi: Candida albicans, C. glabrata, C. parapsilosis; experiment: Antimicrobial spectrum; type: cell-based; settings: Candida panel
[19] = test system: panel of cell lines derived from different body tissue; experiment: Cytotoxicity assay (resazurin), whole panel; settings: 5 days co-incubation, 133 up to 100 μM
[20] = test system: Jurkat-T-cell; experiment: Cytotoxicity assay (resazurin); type: cell-based; settings: 5 days
Procedure: as §1

[21] = test system: THP-1-Monocytes; experiment: Cytotoxicity assay (resazurin); type: cell-based; settings: 5 days
Procedure: as §1

[22] = test system: BCG Pasteur-Tokyo; experiment: microbe, parasite or virus in culture; type: cell-based; settings: Mycobacterium tuberculosis variant bovis BCG
[23] = test system: Gram-negative: Acinetobacter baumannii, Escherichia coli, Enterobacter cloacae, E. aerogenes, Klebsiella oxytoca, Pseudomonas aeruginosa, Salmonella enteridis …; experiment: Antimicrobial spectrum; type: cell-based; settings: Gram-negative panel, clinical isolates from CHU d'Angers
[24] = test system: Gram-positive: Staphylococcus aureus, S. epidermis, S. capitis, S. xylosus, Micrococcus luteus, Listeria innocua, Lactobacillus gallinarum, group G …; experiment: Antimicrobial spectrum; type: cell-based; settings: Gram-positive panel, clinical isolates from CHU d'Angers
[25] = in vitro; settings: human
[26] = test system: Primary BMDM; experiment: Cytotoxicity assay (resazurin); settings: 5 days
[27] = test system: Primary human macrophages; experiment: Cytotoxicity assay (resazurin); settings: 5 days
[28] = compounds 5 μM, Raw264.7, mouse bone marrow-derived macrophages, human primary macrophages, five days after infection
[29] = laboratory strain H37Rv, read-out: MIC
[30] = laboratory strain H37Ra, read-out: MIC

Compound: COc1ccc(OCCNC(=O)c2cc([N+](=O)[O-])cc([N+](=O)[O-])c2)cc1 [compound 4, N-(2-(4-Methoxyphenoxy)ethyl)-3,5-dinitrobenzamide]
- decrease in the number of CFUs [1, 28]: ten-fold decrease
- Range of MTC50 [2]: >100 µM
- Range of MTC50 [3]: >100 µM
- Range of MTC50 [4]: >100 µM
- Range of MTC50 [5]: >100 µM
- Range of MTC50 [6]: >100 µM
- Range of MICs for multiple strains ([7]; Drug Sensitive, Tissue): 0.38 µM
- Range of MICs for multiple strains ([7]; INH^R RIF^R Strep^R, Sputum): 0.1 µM
- Range of MICs for multiple strains ([7]; INH^R RIF^R Strep^R, Tissue): 0.05 to 0.1 µM
- Range of MICs for multiple strains ([7]; MDR, Sputum): 0.05 to 0.1 µM
- Range of MICs for multiple strains ([7]; MDR, Tissue): 0.05 to 0.1 µM
- Range of MICs for multiple strains ([7]; RIF^R, Sputum): 0.05 µM
- Range of MICs for multiple strains ([7]; RIF^R, Tissue): 0.02 to 0.05 µM
- Range of MICs for multiple strains ([7]; XDR, Sputum): 0.02 to 0.05 µM
- Range of MICs for multiple strains ([7]; XDR, Tissue): 0.05 to 0.1 µM
- MIC [8, 29]: 0.6 µM (≈ 0.217 µg/mL)
- MIC [9, 30]: 1.2 µM (≈ 0.434 µg/mL)
- MIC [10]: 0.3 µM (≈ 0.108 µg/mL)
- MIC [11]: 1.2 µM (≈ 0.434 µg/mL)
- MIC [12]: 1.2 µM (≈ 0.434 µg/mL)
- MIC [13]: 1.2 µM (≈ 0.434 µg/mL)
- MIC [14]: > 250 µM
- MIC [15]: > 250 µM
- MIC [16]: 27 µM (≈ 9.76 µg/mL)
- MIC [17]: 2.7 µM (≈ 0.976 µg/mL)
- MIC [18]: > 250 µM
- cytotoxicity against the panel of cell lines [19]: no cytotoxicity

Compound: O=C(NCCOCc1ccccc1)c1cc([N+](=O)[O-])cc([N+](=O)[O-])c1 [compound 24, N-(2-(Benzyloxy)ethyl)-3,5-dinitrobenzamide]
- decrease in the number of CFUs [1, 28]: ten-fold decrease
- Range of MTC50 [2]: >100 µM
- Range of MTC50 [3]: >100 µM
- Range of MTC50 [4]: >100 µM
- Range of MTC50 [5]: >100 µM
- Range of MTC50 [6]: >100 µM
- Range of MICs for multiple strains ([7]; Drug Sensitive, Tissue): 0.31 µM
- Range of MICs for multiple strains ([7]; INH^R RIF^R Strep^R, Sputum): 0.08 µM
- Range of MICs for multiple strains ([7]; INH^R RIF^R Strep^R, Tissue): 0.04 to 0.08 µM
- Range of MICs for multiple strains ([7]; MDR, Sputum): 0.04 to 0.08 µM
- Range of MICs for multiple strains ([7]; MDR, Tissue): 0.04 to 0.08 µM
- Range of MICs for multiple strains ([7]; RIF^R, Sputum): 0.08 µM
- Range of MICs for multiple strains ([7]; RIF^R, Tissue): 0.08 µM
- Range of MICs for multiple strains ([7]; XDR, Sputum): 0.04 to 0.08 µM
- Range of MICs for multiple strains ([7]; XDR, Tissue): 0.08 µM
- MIC [8, 29]: 0.6 µM (≈ 0.207 µg/mL)
- MIC [9, 30]: 1.3 µM (≈ 0.449 µg/mL)
- MIC [10]: 0.1 µM (≈ 0.0345 µg/mL)
- MIC [11]: 0.6 µM (≈ 0.207 µg/mL)
- MIC [12]: 1.2 µM (≈ 0.414 µg/mL)
- MIC [13]: 0.6 µM (≈ 0.207 µg/mL)
- MIC [14]: > 250 µM
- MIC [15]: > 250 µM
- MIC [16]: 27 µM (≈ 9.32 µg/mL)
- MIC [17]: 2.7 µM (≈ 0.932 µg/mL)
- MIC [18]: > 250 µM
- cytotoxicity against the panel of cell lines [19]: no cytotoxicity

Compound: Cc1cccn2c(=O)c(C=O)c(Nc3cccc(Cl)c3)nc12 [compound 133, 2-(3-Chlorophenylamino)-9-methyl-4-oxo-4H-pyrido[1,2-a]pyrimidine-3-carbaldehyde]
- decrease in the number of CFUs ([1]; human and mouse cells, seven days after infection, 232 at 20 μM): ten-fold decrease
- Range of MTC50 [2]: >100 µM
- Range of MTC50 [3]: >100 µM
- Range of MTC50 [4]: >100 µM
- Range of MTC50 [20]: >100 µM
- Range of MTC50 [5]: >100 µM
- Range of MTC50 [6]: >100 µM
- Range of MTC50 [21]: >100 µM
- Range of MICs for multiple strains ([7]; Drug Sensitive, Tissue): 2.5 to 5 µM
- Range of MICs for multiple strains ([7]; INH^R RIF^R Strep^R, Sputum): 0.3 to 1.2 µM
- Range of MICs for multiple strains ([7]; INH^R RIF^R Strep^R, Tissue): 1.2 µM
- Range of MICs for multiple strains ([7]; MDR, Sputum): 0.3 to 1.2 µM
- Range of MICs for multiple strains ([7]; MDR, Tissue): 1.2 µM
- Range of MICs for multiple strains ([7]; RIF^R, Sputum): 2.5 µM
- Range of MICs for multiple strains ([7]; RIF^R, Tissue): 1.2 µM
- Range of MICs for multiple strains ([7]; XDR, Sputum): 0.6 to 2.5 µM
- Range of MICs for multiple strains ([7]; XDR, Tissue): 0.3 to 5 µM
- MIC ([8]; H37RV): 2 µM (≈ 0.627 µg/mL)
- MIC ([9]; H37RA): 2 µM (≈ 0.627 µg/mL)
- MIC [12]: 2 µM (≈ 0.627 µg/mL)
- MIC [22]: 2 µM (≈ 0.627 µg/mL)
- MIC ([13]; mc^2 155, read-out: MIC): > 100 µM
- MIC (μM) ([13]; mc^2 155): no effect
- antimicrobial effect [23]: NE (NE: No effect up to 100 μg/mL equivalent to 320 μM)
- antimicrobial effect [24]: NE (NE: No effect up to 100 μg/mL equivalent to 320 μM)
- antimicrobial effect ([16]; C. striatum, clinical isolates from CHU d'Angers): NE (NE: No effect up to 100 μg/mL equivalent to 320 μM)
- antimicrobial effect ([17]; C. jeikeium, clinical isolates from CHU d'Angers): NE (NE: No effect up to 100 μg/mL equivalent to 320 μM)
- antimicrobial effect ([18]; clinical isolates from CHU d'Angers): NE (NE: No effect up to 100 μg/mL equivalent to 320 μM)
- selectivity ratio [25]: > 50
- Range of MTC50 [26]: >100 µM
- Range of MTC50 [27]: >100 µM
- cytotoxicity against the panel of cell lines [19]: no cytotoxicity
